Measured values from publication PMC6037691, “Selenazolyl-hydrazones as Novel Selective MAO Inhibitors With Antiproliferative and Antioxidant Activities: Experimental and In-silico Studies” (Frontiers in Chemistry, 2018).

Tests used:
HeLa (cervix) = experiment: Antiproliferative activity, HeLa; format: cell-based, human; details: Homo sapiens
Procedure: (§1) The in vitro antiproliferative activity of investigated compounds was evaluated against six human solid tumor cell lines: A549 (non-small cell lung), HBL-100, (breast), HeLa (cervix), SW1573 (non-small cell lung), as drug sensitive lines, T-47D (breast) and WiDr (colon) as drug resistant lines. These cell lines were a kind gift from Prof. G. J. Peters (VU Medical Center, Amsterdam, The Netherlands). For selectivity studies, the human fibroblasts BJ-hTert cell line was used, which was obtained from Dr. R. Freire (HUC, Tenerife, Canary Islands). Cells were kept in culture medium under standard conditions: RPMI 1640 medium, fetal bovine serum (5%), glutamine (2 mM), penicillin G (100 units/mL) and streptomycin (0.1 mg/mL). Antiproliferative tests were conducted as described earlier (Skehan et al., [1990]; Miranda et al., [2006]). Tested compounds were dissolved in DMSO at an initial concentration of 40 mM. DMSO was used as negative control (0.25% v/v). Antiproliferative activity of the compounds was expressed as GI50, which is the concentration of the compound that inhibits 50% of the culture growth.

[1] = system: A549 (non-small cell lung); experiment: Antiproliferative activity, A549; format: cell-based, human; details: Homo sapiens
Procedure: as §1

T-47D (breast) = experiment: Antiproliferative activity, T-47D; format: cell-based, human; details: for GI50: Homo sapiens, T47D
Procedure: as §1

[2] = system: human fibroblasts BJ-hTert cell line; experiment: Selectivity, non-transformed fibroblasts BJ-hTert; format: cell-based; details: Fibroblast; BJ-hTert normal human cell line; concentrations up to 100 μM
Procedure: as §1

[3] = system: SW1573 (non-small cell lung); experiment: Antiproliferative activity, SW1573; format: cell-based, human; details: Homo sapiens
Procedure: as §1

HBL-100 (breast) = experiment: Antiproliferative activity, HBL-100; format: cell-based, human; details: Homo sapiens
Procedure: as §1

WiDr (colon) = experiment: Antiproliferative activity, WiDr; format: cell-based, human; details: for GI50: Homo sapiens
Procedure: as §1

[4] = system: six human solid tumor cell lines; experiment: Antiproliferative activity, panel as a whole; format: cell-based; set-up: key: moderate activity (GI50 = 10–100 μM); good activity (GI50 = 1–10 μM); inactive (GI50 > 100 μM)
Procedure: as §1

[5] = DPPH scavenging antioxidant assay; details: concentration providing 50% of radicals scavenging activity; mean ± SD, n = 3
Procedure: The experiments were performed according to the literature protocol (Prior et al., [2005]). All tested compounds were initially dissolved in DMSO. The initial concentration of DPPH in methanol was 6.58 × 10^−5 M. A volume of 140 μL of DPPH solution was placed into a 96-well microplate, and then 10 μL solution of the tested compounds was added. Pure DMSO (10 μL) was used as the control. The absorbance at 517 nm was measured after 30 min period of incubation in the dark at 25°C. The Equation (1) was used for calculation of the scavenging activity:
(1) Scavenging activity (%)=Acontrol- Asample/Acontrol×100
where Asample and Acontrol refer to the absorbances at 517 nm of the sample and control, respectively. IC50 values were calculated from the graph of scavenging activity against the concentrations of the samples. IC50 represents the total antioxidant concentration of the sample which decreases the amount of the initial DPPH radical by 50%. Ascorbic acid (vitamin C) was used as positive control (concentration range 10–500 μM).

MAO A = target: T1, MAO A (Homo sapiens, UniProt P21397); experiment: MAO A inhibition, discontinuous fluorimetric kynuramine assay; format: biochemical; details: for inhibition at 1 µM: 1 μM inhibitor, mean ± SD, n = 2, normalized to control
T1 construct: purchased Sigma-Aldrich
T1 sequence (P21397 1-527): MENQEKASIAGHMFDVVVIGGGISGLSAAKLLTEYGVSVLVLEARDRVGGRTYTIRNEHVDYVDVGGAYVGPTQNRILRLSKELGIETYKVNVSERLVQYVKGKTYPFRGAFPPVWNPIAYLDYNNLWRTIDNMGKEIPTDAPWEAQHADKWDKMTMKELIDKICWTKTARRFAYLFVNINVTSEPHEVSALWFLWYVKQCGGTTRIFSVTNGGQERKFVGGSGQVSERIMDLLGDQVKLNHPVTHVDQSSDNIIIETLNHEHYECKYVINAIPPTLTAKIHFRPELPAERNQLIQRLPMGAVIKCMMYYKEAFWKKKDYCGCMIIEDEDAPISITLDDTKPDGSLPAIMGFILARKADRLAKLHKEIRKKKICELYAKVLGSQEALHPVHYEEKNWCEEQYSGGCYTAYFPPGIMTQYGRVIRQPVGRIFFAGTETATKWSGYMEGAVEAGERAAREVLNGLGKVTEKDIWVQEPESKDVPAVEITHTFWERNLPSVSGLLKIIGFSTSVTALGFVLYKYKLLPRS
Procedure: (§2) MAO A and B inhibition capacities were investigated using a discontinuous fluorimetric assay (Meiring et al., [2013]) as described previously by using human recombinant membrane-bound MAO purchased from Sigma-Aldrich (Affini et al., [2018]). Briefly, remained enzyme activity with inhibitor, either 1 μM (one-point) or concentrations ranging from 0.0001 to 10 μM, was assessed in the presence of kynuramine [2 × KM, KM = 20 μM (MAO A), KM = 30 μM (MAO B)] in potassium phosphate buffer (pH 7.4). Reactions were started by addition of enzyme and stopped by manual addition of sodium hydroxide (2 N) after 20 min. Enzyme activity was determined by detection of 4-hydroxyquinoline (λEx = 320 nm, λEm = 405 nm). Data were analyzed using GraphPad PRISM 6. For one-point measurements data were calculated as percentage of control and expressed as mean ± standard deviation (%). […] Data were obtained from two (one-point measurements) or at least three (IC50 values) independent experiments, each performed in duplicates.

[6] = Total reducing power (TRP), modified potassium ferricyanide reduction method; details: concentration providing 0.500 of absorbance at 700 nm; mean ± SD, n = 3
Procedure: The mixture containing 0.5 mL of phosphate buffer (0.2 M, pH = 6.6), 0.5 mL of K3[Fe(CN)6] (1%; w/v) and 0.5 mL of the samples (100–1,500 μM) was incubated at 50°C for 20 min. A volume of 0.5 mL of trichloroacetic acid (TCA, 10%; w/v), 0.5 mL of Milli-Q water and 0.5 mL of FeCl3 (0.1%; w/v) was added, followed by intensive vortexing. The absorbance of the resulting mixture was measured after 60 min at 700 nm using phosphate buffer as blank (Oyaizu, [1986]).
(§3) Volume of 0.4 mL of sample solution (50–1,000 μM) was mixed with 1.6 mL of reagent solution [0.6 M H2SO4, 28 mM Na3PO4, and 4 mM (NH4)2MoO4] and resulting mixtures were incubated at 95°C for 90 min. The cooled reaction mixtures were then centrifuged for 10 min (3,000 rpm). The absorbance of the supernatant solution was measured, 1 h after centrifugation, at 695 nm against reagent solution as blank. An increased absorbance in reading in both assays indicated increased antioxidant power, expressed as EC50 values (the sample concentration giving absorbance of 0.500 from the graph of absorbance at 700 nm or 695 nm against compound concentration) (Prieto et al., [1999]).

[7] = Total antioxidant capacity (TAOC), modified phosphomolybdenum method; details: concentration providing 0.500 of absorbance at 695 nm; mean ± SD, n = 3
Procedure: as §3

MAO B = target: T2, MAO B (Homo sapiens, UniProt P27338); experiment: MAO B inhibition, discontinuous fluorimetric kynuramine assay; format: biochemical; details: for inhibition at 1 µM: 1 μM inhibitor, mean ± SD, n = 2, normalized to control
T2 construct: purchased Sigma-Aldrich
T2 sequence (P27338 1-520): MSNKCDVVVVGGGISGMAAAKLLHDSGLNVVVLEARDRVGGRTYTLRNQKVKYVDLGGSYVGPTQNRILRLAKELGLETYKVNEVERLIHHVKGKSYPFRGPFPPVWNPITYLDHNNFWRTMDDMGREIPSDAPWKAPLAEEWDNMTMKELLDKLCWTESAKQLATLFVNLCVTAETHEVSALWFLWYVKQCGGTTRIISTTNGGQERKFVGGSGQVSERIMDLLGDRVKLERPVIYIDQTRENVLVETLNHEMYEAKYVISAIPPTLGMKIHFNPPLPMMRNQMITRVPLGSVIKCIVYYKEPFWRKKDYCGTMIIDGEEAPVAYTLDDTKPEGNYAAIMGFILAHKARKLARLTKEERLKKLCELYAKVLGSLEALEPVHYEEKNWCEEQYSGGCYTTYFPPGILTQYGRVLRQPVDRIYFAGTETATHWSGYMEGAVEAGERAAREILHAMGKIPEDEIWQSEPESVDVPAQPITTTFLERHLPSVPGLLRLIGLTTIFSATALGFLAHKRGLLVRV
Procedure: as §2

[8] = mean, 95% CI, at least three experiments

Structure (SMILES): O=c1[nH]cc(F)c(=O)[nH]1 [5-fluorouracil, reference compound]
- GI50 (HeLa (cervix)): 15 ± 4.7 µM
- GI50 [1]: > 100 µM
- GI50 (T-47D (breast)): 47 ± 18 µM
- GI50 [2]: 5.5 ± 0.5 µM
- GI50 [3]: 4.6 ± 1.5 µM
- GI50 (HBL-100 (breast)): 4 ± 0.7 µM
- GI50 (WiDr (colon)): 49 ± 6.7 µM

Structure (SMILES): Cc1ccc(-c2c[se]c(NN=Cc3ccccc3)n2)cc1 [Compound 1-Me, 2-(2-benzylidenehydrazinyl)-4-(p-tolyl)-1,3-selenazole]
- antiproliferative activity class against five cell lines ([4]; five cell lines of the six): inactive
- IC50 [5]: 45.1 ± 6.53 µM
- GI50 (HeLa (cervix)): > 100 µM
- GI50 [1]: > 100 µM
- GI50 (T-47D (breast); T-47D): > 100 µM
- melting point: 174 to 176 °C
- GI50 [2]: > 100 µM
- GI50 [3]: 47 ± 3 µM
- GI50 (HBL-100 (breast)): > 100 µM
- inhibition at 1 µM (MAO A): 12.7 ± 3.5%
- GI50 (WiDr (colon)): > 100 µM
- EC50 [6]: 966 ± 88 µM
- EC50 [7]: 603 ± 61 µM
- inhibition at 1 µM (MAO B): 23.4 ± 17.1%

Structure (SMILES): O=[N+]([O-])c1ccc(C=NNc2nc(-c3ccccc3)c[se]2)cc1 [Compound 4, 2-(2-(4-nitrobenzylidene)hydrazinyl)-4-phenyl-1,3-selenazole]
- IC50 [5]: 44.8 ± 2.3 µM
- GI50 (HeLa (cervix)): 31 ± 8.5 µM
- GI50 [1]: 16 ± 3.5 µM
- GI50 (T-47D (breast); T-47D): 6.3 ± 1.1 µM
- antiproliferative activity class T-47D (T-47D (breast); T-47D): good activity (good activity (GI50 = 1–10 μM))
- GI50 [2]: > 100 µM
- GI50 [3]: 23 ± 1.2 µM
- GI50 (HBL-100 (breast)): > 100 µM
- inhibition at 1 µM (MAO A): 71.9 ± 3.5%
- IC50 (MAO A; [8]): 0.258 µM
- antiproliferative activity class WiDr (WiDr (colon)): good activity (good activity (GI50 = 1–10 μM))
- GI50 (WiDr (colon)): 6.9 ± 1.3 µM
- EC50 [6]: 376 ± 51 µM
- EC50 [7]: 433 ± 43 µM
- inhibition at 1 µM (MAO B): 96.3 ± 0.5%
- IC50 (MAO B; [8]): 0.073 µM

Structure (SMILES): Cc1ccc(-c2c[se]c(NN=Cc3ccc([N+](=O)[O-])cc3)n2)cc1 [Compound 4-Me, 2-(2-(4-nitrobenzylidene)hydrazinyl)-4-(p-tolyl)-1,3-selenazole]
- antiproliferative activity class against all six cell lines ([4]; all six cell lines): inactive
- IC50 [5]: 40.1 ± 4.7 µM
- GI50 (HeLa (cervix)): > 100 µM
- GI50 [1]: > 100 µM
- GI50 (T-47D (breast); T-47D): > 100 µM
- melting point: 228 to 230 °C
- GI50 [2]: > 100 µM
- GI50 [3]: > 100 µM
- GI50 (HBL-100 (breast)): > 100 µM
- inhibition at 1 µM (MAO A): 22.1 ± 2.1%
- GI50 (WiDr (colon)): > 100 µM
- EC50 [6]: 495 ± 48 µM
- EC50 [7]: 579 ± 51 µM
- inhibition at 1 µM (MAO B): 48.1 ± 2.9%

Structure (SMILES): COc1ccc(-c2c[se]c(NN=Cc3ccc([N+](=O)[O-])cc3)n2)cc1 [Compound 4-OMe, 4-(4-methoxyphenyl)-2-(2-(4-nitrobenzylidene)hydrazinyl)-1,3-selenazole]
- IC50 [5]: 79.2 ± 3.9 µM
- GI50 (HeLa (cervix)): 33 ± 10 µM
- GI50 [1]: 16 ± 5.3 µM
- GI50 (T-47D (breast); T-47D): 66 ± 17 µM
- melting point: 208 to 211 °C
- GI50 [2]: > 100 µM
- GI50 [3]: 26 ± 17 µM
- GI50 (HBL-100 (breast)): 47 ± 13 µM
- inhibition at 1 µM (MAO A): 49.4 ± 1.3%
- GI50 (WiDr (colon)): > 100 µM
- EC50 [6]: 398 ± 44 µM
- EC50 [7]: 645 ± 53 µM
- inhibition at 1 µM (MAO B): 42.5 ± 19%

Structure (SMILES): O=C1O[C@H]([C@@H](O)CO)C(O)=C1O [vitamin C, Ascorbic acid, reference compound]
- IC50 [5]: 79.1 ± 1.8 µM
- EC50 [6]: 155 ± 39 µM
- EC50 [7]: 140 ± 10 µM
